Measurements reported in PubChem BioAssay AID226 (DTP/NCI, 2004).
Where “and” joins values, the source holds several entries; their conditions need not be identical. Identical values can stand only once. Toxic doses and inconclusive results are not listed.

System: B6C3F1 mice, intracerebral ependymoblastoma, median survival T/C
Test: NCI In Vivo Anticancer Drug Screen. Data for tumor model Ependymoblastoma (intracerebral) in B6C3F1 mice
Details: endpoint: median survival time, higher = longer survival
Protocol: The antitumor activity of compounds was measured in mice bearing transplantable tumors. Survival or tumor size were measured and the results are expressed as the measurement made in the treated group (T) divided by the measurement made in the vehicle treated control group (C). The tumor model used in this assay is Ependymoblastoma (intracerebral) in B6C3F1 mice

[1] = dose: 32.0 mg/kg/injection, schedule: Q01DX005 (ip), vehicle: Klucel (hydroxypropylcellulose) (HPC)
[2] = dose: 64.0 mg/kg/injection, schedule: Q01DX005 (ip), vehicle: Klucel (hydroxypropylcellulose) (HPC)
[3] = dose: 128.0 mg/kg/injection, schedule: Q01DX005 (ip), vehicle: Klucel (hydroxypropylcellulose) (HPC)
[4] = dose: 100.0 mg/kg/injection, schedule: Q01DX005 (ip), vehicle: saline
[5] = dose: 200.0 mg/kg/injection, schedule: Q01DX005 (ip), vehicle: saline

Cc1c2ccncc2c(C)c2c1[nH]c1ccccc12
T/C (dose: 128.0 mg/kg/injection, schedule: Q01DX001 (ip), vehicle: Klucel (hydroxypropylcellulose) (HPC)): 112 % of control

NC(=S)N/N=C/c1ccc(O)cn1
T/C (dose: 12.0 mg/kg/injection, schedule: Q01DX005 (ip), vehicle: saline): 102 % of control
T/C (dose: 24.0 mg/kg/injection, schedule: Q01DX005 (ip), vehicle: saline): 107 % of control
T/C (dose: 48.0 mg/kg/injection, schedule: Q01DX005 (ip), vehicle: saline): 110 % of control
T/C (dose: 96.0 mg/kg/injection, schedule: Q01DX005 (ip), vehicle: saline): 115 % of control

CNNCc1ccc(C(=O)NC(C)C)cc1
T/C [1]: 156 % of control
T/C [2]: 155 % of control

O=c1[nH]cc(F)c(=O)[nH]1
T/C (dose: 0.5 mg/kg/injection, schedule: Q01DX005 (ip), vehicle: saline): 108 % of control
T/C (dose: 1.0 mg/kg/injection, schedule: Q01DX005 (ip), vehicle: saline): 108 % of control
T/C (dose: 2.0 mg/kg/injection, schedule: Q01DX005 (ip), vehicle: saline): 111 % of control
T/C (dose: 4.0 mg/kg/injection, schedule: Q01DX005 (ip), vehicle: saline): 113 % of control
T/C (dose: 8.0 mg/kg/injection, schedule: Q01DX005 (ip), vehicle: saline): 105 % of control
T/C (dose: 16.0 mg/kg/injection, schedule: Q01DX005 (ip), vehicle: saline): 105 % of control
T/C (dose: 32.0 mg/kg/injection, schedule: Q01DX005 (ip), vehicle: saline): 120 % of control

CC(C)=CCC1=C(O)c2ccccc2C(=O)C1=O
T/C [1]: 91 % of control
T/C [2]: 100 % of control
T/C [3]: 96 % of control

Cc1c[nH]c(=O)[nH]c1=O
T/C [2]: 104 % of control
T/C [3]: 92 % of control
T/C (dose: 256.0 mg/kg/injection, schedule: Q01DX005 (ip), vehicle: Klucel (hydroxypropylcellulose) (HPC)): 99 % of control
T/C (dose: 512.0 mg/kg/injection, schedule: Q01DX005 (ip), vehicle: Klucel (hydroxypropylcellulose) (HPC)): 95 % of control
T/C (dose: 1024.0 mg/kg/injection, schedule: Q01DX005 (ip), vehicle: Klucel (hydroxypropylcellulose) (HPC)): 95 % of control

O=NN(CCCl)C(=O)NCCCl
T/C (dose: 0.5 mg/kg/injection, schedule: Q01DX009 (ip), vehicle: saline with Tween-80): 114 % of control
T/C (dose: 1.0 mg/kg/injection, schedule: Q01DX001 (ip), vehicle: saline): 96 % of control and 105 % of control
T/C (dose: 1.0 mg/kg/injection, schedule: Q01DX005 (ip), vehicle: saline + alcohol): 100 % of control and 115 % of control
T/C (dose: 1.0 mg/kg/injection, schedule: Q01DX005 (ip), vehicle: saline with Tween-80): 99 % of control and 103 % of control
T/C (dose: 1.0 mg/kg/injection, schedule: Q01DX009 (ip), vehicle: saline with Tween-80): 118 % of control
T/C (dose: 2.0 mg/kg/injection, schedule: Q01DX001 (ip), vehicle: saline): 96 % of control and 105 % of control
T/C (dose: 2.0 mg/kg/injection, schedule: Q01DX005 (ip), vehicle: saline + alcohol): 103 % of control and 107 % of control and 119 % of control
T/C (dose: 2.0 mg/kg/injection, schedule: Q01DX005 (ip), vehicle: saline with Tween-80): 93 % of control and 116 % of control
T/C (dose: 2.0 mg/kg/injection, schedule: Q01DX009 (ip), vehicle: saline with Tween-80): 153 % of control
T/C (dose: 2.5 mg/kg/injection, schedule: Q01DX001 (ip), vehicle: saline with Tween-80): 109 % of control
T/C (dose: 4.0 mg/kg/injection, schedule: Q01DX001 (ip), vehicle: saline): 106 % of control and 111 % of control
T/C (dose: 4.0 mg/kg/injection, schedule: Q01DX005 (ip), vehicle: saline + alcohol): 170 % of control
T/C (dose: 4.0 mg/kg/injection, schedule: Q01DX009 (ip), vehicle: saline with Tween-80): 241 % of control
T/C (dose: 5.0 mg/kg/injection, schedule: Q01DX001 (ip), vehicle: alcohol): 113 % of control
T/C (dose: 5.0 mg/kg/injection, schedule: Q01DX001 (ip), vehicle: saline with Tween-80): 113 % of control
T/C (dose: 7.5 mg/kg/injection, schedule: Q01DX001 (ip), vehicle: saline + alcohol): 107 % of control
T/C (dose: 8.0 mg/kg/injection, schedule: Q01DX001 (ip), vehicle: saline): 108 % of control and 110 % of control
T/C (dose: 8.0 mg/kg/injection, schedule: Q01DX005 (ip), vehicle: saline + alcohol): 204 % of control and 218 % of control
T/C (dose: 8.0 mg/kg/injection, schedule: Q01DX005 (ip), vehicle: saline with Tween-80): 171 % of control and 240 % of control
T/C (dose: 8.0 mg/kg/injection, schedule: Q01DX009 (ip), vehicle: saline with Tween-80): 106 % of control
T/C (dose: 10.0 mg/kg/injection, schedule: Q01DX001 (ip), vehicle: saline with Tween-80): 99 % of control
T/C (dose: 10.0 mg/kg/injection, schedule: Q01DX005 (ip), vehicle: saline with Tween-80): 214 % of control
T/C (dose: 16.0 mg/kg/injection, schedule: Q01DX001 (ip), vehicle: saline): 150 % of control and 163 % of control
T/C (dose: 16.0 mg/kg/injection, schedule: Q01DX005 (ip), vehicle: saline + alcohol): 376 % of control
T/C (dose: 16.0 mg/kg/injection, schedule: Q01DX005 (ip), vehicle: saline with Tween-80): 105 % of control
T/C (dose: 20.0 mg/kg/injection, schedule: Q01DX001 (ip), vehicle: alcohol): 167 % of control
T/C (dose: 20.0 mg/kg/injection, schedule: Q01DX001 (ip), vehicle: saline with Tween-80): 117 % of control
T/C (dose: 24.0 mg/kg/injection, schedule: Q01DX001 (ip), vehicle: saline): 300 % of control
T/C (dose: 30.0 mg/kg/injection, schedule: Q01DX001 (ip), vehicle: saline + alcohol): 177 % of control
T/C (dose: 32.0 mg/kg/injection, schedule: Q01DX001 (ip), vehicle: saline): 196 % of control and 226 % of control
T/C (dose: 40.0 mg/kg/injection, schedule: Q01DX001 (ip), vehicle: alcohol): 215 % of control
T/C (dose: 40.0 mg/kg/injection, schedule: Q01DX001 (ip), vehicle: saline with Tween-80): 112 % of control
T/C (dose: 60.0 mg/kg/injection, schedule: Q01DX001 (ip), vehicle: saline + alcohol): 359 % of control
T/C (dose: 64.0 mg/kg/injection, schedule: Q01DX001 (ip), vehicle: saline): 95 % of control

CN(N=O)C(=O)N[C@@H](C=O)[C@@H](O)[C@H](O)[C@H](O)CO
T/C (dose: 6.25 mg/kg/injection, schedule: Q01DX009 (ip), vehicle: citric acid): 96 % of control
T/C (dose: 12.5 mg/kg/injection, schedule: Q01DX005 (ip), vehicle: saline): 103 % of control
T/C (dose: 12.5 mg/kg/injection, schedule: Q01DX009 (ip), vehicle: citric acid): 108 % of control
T/C (dose: 25.0 mg/kg/injection, schedule: Q01DX005 (ip), vehicle: saline): 122 % of control
T/C (dose: 25.0 mg/kg/injection, schedule: Q01DX009 (ip), vehicle: citric acid): 117 % of control
T/C (dose: 64.0 mg/kg/injection, schedule: Q01DX001 (ip), vehicle: other): 108 % of control
T/C (dose: 75.0 mg/kg/injection, schedule: Q01DX001 (ip), vehicle: saline): 121 % of control
T/C [4]: 113 % of control
T/C (dose: 128.0 mg/kg/injection, schedule: Q01DX001 (ip), vehicle: other): 105 % of control
T/C [5]: 113 % of control
T/C (dose: 256.0 mg/kg/injection, schedule: Q01DX001 (ip), vehicle: other): 101 % of control
T/C (dose: 400.0 mg/kg/injection, schedule: Q01DX005 (ip), vehicle: saline): 103 % of control
T/C (dose: 512.0 mg/kg/injection, schedule: Q01DX001 (ip), vehicle: other): 108 % of control

CN(C)c1nc(N(C)C)nc(N(C)C)n1
T/C (dose: 50.0 mg/kg/injection, schedule: Q01DX005 (ip), vehicle: saline): 94 % of control
T/C (dose: 100.0 mg/kg/injection, schedule: Q01DX005 (ip), vehicle: saline with Tween-80): 100 % of control
T/C [4]: 94 % of control
T/C (dose: 200.0 mg/kg/injection, schedule: Q01DX001 (ip), vehicle: saline with Tween-80): 92 % of control
T/C (dose: 200.0 mg/kg/injection, schedule: Q01DX001 (ip), vehicle: saline): 96 % of control and 99 % of control and 104 % of control
T/C (dose: 200.0 mg/kg/injection, schedule: Q01DX005 (ip), vehicle: saline with Tween-80): 99 % of control
T/C [5]: 101 % of control
T/C (dose: 400.0 mg/kg/injection, schedule: Q01DX001 (ip), vehicle: saline with Tween-80): 100 % of control
T/C (dose: 400.0 mg/kg/injection, schedule: Q01DX001 (ip), vehicle: saline): 97 % of control and 107 % of control and 89 % of control
T/C (dose: 400.0 mg/kg/injection, schedule: Q01DX005 (ip), vehicle: saline with Tween-80): 87 % of control
T/C (dose: 800.0 mg/kg/injection, schedule: Q01DX001 (ip), vehicle: saline with Tween-80): 100 % of control
T/C (dose: 800.0 mg/kg/injection, schedule: Q01DX001 (ip), vehicle: saline): 92 % of control (2×) and 96 % of control
T/C (dose: 1600.0 mg/kg/injection, schedule: Q01DX001 (ip), vehicle: saline): 106 % of control
